Measurements taken from patent US20260166029A1, “METHODS AND SYSTEMS FOR TREATING DISEASE USING AN ATR/CHK1 SIGNALING PATHWAY INHIBITOR” (Acrivon Therapeutics, Inc., priority 2022, published 2026).
Like-named read-outs stand apart in the source and are kept apart here.

Key:
PC3 = test: Cell viability, sensitivity to prexasertib (Example 1); assay type: cell-based, human; details: PC3 cell line
Description: (§1) Predicted response to prexasertib was compared to experimentally measured sensitivity to prexasertib. […] EC50 values of less than or equal to 1 μM were considered to be actual responders, while values of greater than 1 μM were considered to be actual non-responders.

T47D = test: as above; assay type: cell-based, human; details: T47D cell line
Description: as §1

U1752 = test: as above; assay type: cell-based, human; details: U1752 cell line
Description: as §1

U2020 = test: as above; assay type: cell-based, human; details: U2020 cell line
Description: as §1

MCF7 = test: as above; assay type: cell-based, human; details: MCF7 cell line
Description: as §1

CAOV3 = test: as above; assay type: cell-based, human; details: CAOV3 cell line
Description: as §1

OVCAR3 = test: as above; assay type: cell-based, human; details: OVCAR3 cell line
Description: as §1

A2780 = test: as above; assay type: cell-based, human; details: A2780 cell line
Description: as §1

Kuramochi = test: as above; assay type: cell-based, human; details: Kuramochi cell line
Description: as §1

DU145 = test: as above; assay type: cell-based, human; details: DU145 cell line
Description: as §1

A549 = test: as above; assay type: cell-based, human; details: A549 cell line
Description: as §1

ST182B ovarian PDX tumor = test: Response to prexasertib treatment in ovarian PDX tumor model (Example 3); assay type: in vivo; set-up: key to Response type: CR = complete regression; PR = partial regression; S = stasis; G = growth
Description: (§2) To evaluate whether the provided Response-Predictive Signature can predict response to prexasertib treatment, the predicted response for each PDX model was compared to an experimentally determined response to prexasertib treatment for the same PDX model. The experimentally measured response was quantified as follows: if a treated tumor reduced in size/volume, then the percent regression compared to an initial volume of a treated tumor was provided, if a treated tumor increased in size/volume, then a percent ratio of the treated tumor's growth was divided by control tumor (i.e., untreated tumor) growth (d[T/C]). Negative values for regression percentage indicate response to treatment with prexasertib, while positive values indicate continued growth and non-response to prexasertib treatment. The experimentally measured response was further categorized as complete regression (near −100% regression), partial regression (−50% to −100% regression), stasis (<20% median tumor growth to −50% regression), and growth (>20% median tumor growth).

ST260 ovarian PDX tumor = test: as above; assay type: in vivo; set-up: key to Response type: CR = complete regression; PR = partial regression; S = stasis; G = growth
Description: as §2

ST1827 ovarian PDX tumor = test: as above; assay type: in vivo; set-up: key to Response type: CR = complete regression; PR = partial regression; S = stasis; G = growth
Description: as §2

ST2067 ovarian PDX tumor = test: as above; assay type: in vivo; set-up: key to Response type: CR = complete regression; PR = partial regression; S = stasis; G = growth
Description: as §2

ST206B ovarian PDX tumor = test: as above; assay type: in vivo; set-up: key to Response type: CR = complete regression; PR = partial regression; S = stasis; G = growth
Description: as §2

ST2249 ovarian PDX tumor = test: as above; assay type: in vivo; set-up: key to Response type: CR = complete regression; PR = partial regression; S = stasis; G = growth
Description: as §2

[1] = system: ST1986B ovarian PDX tumor; test: as above; assay type: in vivo
Description: as §2

ST022 ovarian PDX tumor = test: as above; assay type: in vivo
Description: as §2

ST1526 ovarian PDX tumor = test: as above; assay type: in vivo
Description: as §2

ST1301 ovarian PDX tumor = test: as above; assay type: in vivo
Description: as §2

ST416 ovarian PDX tumor = test: as above; assay type: in vivo
Description: as §2

ST025 ovarian PDX tumor = test: as above; assay type: in vivo
Description: as §2

ST1949 ovarian PDX tumor = test: as above; assay type: in vivo
Description: as §2

ST255 ovarian PDX tumor = test: as above; assay type: in vivo
Description: as §2

SCLC = details: cited from earlier work
[2] = based on measured sensitivity (EC50)
[3] = Homo sapiens, reduction in cell viability by 50%

COc1cccc(OCCCN)c1-c1cc(Nc2cnc(C#N)cn2)n[nH]1 [prexasertib, 5-(5-(2-(3-aminopropoxy)-6-methoxyphenyl)-1H-pyrazol-3-ylamino)pyrazine-2-carbonitrile]
EC50 (PC3; Homo sapiens, PC-3, reduction in cell viability by 50%): > 10 µM | Actual response status (PC3; [2]): NR (values of greater than 1 μM were considered to be actual non-responders) | EC50 (T47D; [3]): > 10 µM | Actual response status (T47D; [2]): NR (values of greater than 1 μM were considered to be actual non-responders) | EC50 (U1752; [3]): > 10 µM | Actual response status (U1752; [2]): NR (values of greater than 1 μM were considered to be actual non-responders) | EC50 (U2020; [3]): 7 nM | Actual response status (U2020; [2]): R (EC50 values of less than or equal to 1 μM were considered to be actual responders) | EC50 (MCF7; [3]): > 10 µM | Actual response status (MCF7; [2]): NR (values of greater than 1 μM were considered to be actual non-responders) | Actual response status (CAOV3; [2]): R (EC50 values of less than or equal to 1 μM were considered to be actual responders) | EC50 (CAOV3; Homo sapiens, Caov-3, reduction in cell viability by 50%): 17 nM | EC50 (OVCAR3; Homo sapiens, OVCAR-3, reduction in cell viability by 50%): 19 nM | Actual response status (OVCAR3; [2]): R (EC50 values of less than or equal to 1 μM were considered to be actual responders) | Actual response status (A2780; [2]): NR (values of greater than 1 μM were considered to be actual non-responders) | EC50 (A2780; [3]): > 10 µM | EC50 (Kuramochi; [3]): 24 nM | Actual response status (Kuramochi; [2]): R (EC50 values of less than or equal to 1 μM were considered to be actual responders) | Actual response status (DU145; [2]): NR (values of greater than 1 μM were considered to be actual non-responders) | EC50 (DU145; Homo sapiens, DU-145, reduction in cell viability by 50%): > 10 µM | Actual response status (A549; [2]): NR (values of greater than 1 μM were considered to be actual non-responders) | EC50 (A549; [3]): > 10 µM | Response type (ST182B ovarian PDX tumor): CR | Best d[T/C], or Regression (ST182B ovarian PDX tumor; negative = regression): −100% | Response type (ST260 ovarian PDX tumor): CR | Best d[T/C], or Regression (ST260 ovarian PDX tumor; negative = regression): −100% | Response type (ST1827 ovarian PDX tumor): CR | Best d[T/C], or Regression (ST1827 ovarian PDX tumor; negative = regression): −100% | Response type (ST2067 ovarian PDX tumor): CR | Best d[T/C], or Regression (ST2067 ovarian PDX tumor; negative = regression): −100% | Response type (ST206B ovarian PDX tumor): CR | Best d[T/C], or Regression (ST206B ovarian PDX tumor; negative = regression): −100% | Response type (ST2249 ovarian PDX tumor): CR | Best d[T/C], or Regression (ST2249 ovarian PDX tumor; negative = regression): −100% | Response type [1]: G (G = growth) | Best d[T/C], or Regression ([1]; negative = regression): 35.1% | Response type (ST022 ovarian PDX tumor): G (G = growth) | Best d[T/C], or Regression (ST022 ovarian PDX tumor; negative = regression): 21.1% | Response type (ST1526 ovarian PDX tumor): PR (PR = partial regression) | Best d[T/C], or Regression (ST1526 ovarian PDX tumor; negative = regression): −90% | Response type (ST1301 ovarian PDX tumor): S (S = stasis) | Best d[T/C], or Regression (ST1301 ovarian PDX tumor; negative = regression): 1.2% | Response type (ST416 ovarian PDX tumor): S (S = stasis) | Best d[T/C], or Regression (ST416 ovarian PDX tumor; negative = regression): −9% | Response type (ST025 ovarian PDX tumor): G (G = growth) | Best d[T/C], or Regression (ST025 ovarian PDX tumor; negative = regression): 48.9% | Response type (ST1949 ovarian PDX tumor): G (G = growth) | Best d[T/C], or Regression (ST1949 ovarian PDX tumor; negative = regression): 56% | Response type (ST255 ovarian PDX tumor): S (S = stasis) | Best d[T/C], or Regression (ST255 ovarian PDX tumor; negative = regression): −8.9% | ORR in trials (SCLC; platinum resistant): 0% (platinum | ORR in trials (SCLC; platinum sensitive): 5% (platinum
